Like-named read-outs stand apart in the source and are kept apart here.

The record followed here is patent US11053218B2, “3-(1-oxoisoindolin-2-yl)piperidine-2,6-dione derivatives and uses thereof” (Novartis AG, priority 2017, dated 2021).

The target of one assay is IKZF2 (Homo sapiens, UniProt Q96SW2+Q9UKS7). The assay is described as follows: Prolabel quantification of IKZF2 protein levels in 293GT cells. Format: cell-based. The method, then:
(§1) The Prolabel system from DiscoverX was used to develop high-throughput and quantitative assays to measure changes in IKZF1, IKZF2 and GSPT1 protein levels in response to compounds. The prolabel tag was derived from the alpha fragment of beta galactosidase and has the following protein sequence: mssnslavvlqrrdwenpgvtqlnrlaahppfaswrnseeartdrpsqqlrslnge. The complementary fragment of beta-galactosidase (from DiscoverX), is added to the prolabel tag to form an active beta galactosidase enzyme whose activity can be precisely measured. In this way, the levels of a fusion protein with the prolabel tag can be quantified in cell lysates.
(§2) Lentiviral vectors, based on the Invitrogen pLenti6.2/V5 DEST backbone, were constructed that placed the prolabel tag upstream of IKZF1, IKZF2 or GSPT1 and expressed the fusion protein from a CMV promoter.
(§3) To ensure moderate and consistent expression of the prolabel fusion proteins across all cells in the population, stable cell lines were constructed from cells expressing a single copy of the construct. Lentivirus packaged with the constructs was made using the Virapower kit from Invitrogen.
(§4) The levels of prolabel tagged fusion proteins in compound treated cell lines were measured as follows:
(§5) Day 1, Cells were diluted to 1.0×10^6 cells/ml in normal growth medium. 17.5 μL of cells were plated in each well of a solid white 384 well plate. Plates were incubated overnight in a 37° C. tissue culture incubator.
(§6) Day 2, Serial dilutions of compounds were made in 384 well plates from 10 mM stocks. 15 μL of DMSO was added to each well of a 384 well plate. In the first column 15 μL of stock compound was added. The solution was mixed and 15 μL was transferred to the next column. This was repeated until 20 two-fold dilutions were prepared. 2.5 μL of diluted compounds were transferred into 60 μL of cell culture medium in another 384 well plate, and mixed well. 2.5 μL of this mixture was added to the plated cells. The final DMSO concentration was 0.5% and the highest concentration of compound was 50 μM. Plates were incubated overnight (e.g., about 14 h, 18 h, or 24 h) in a 37° C. tissue culture incubator.
(§7) Day 3, Plates were removed from the incubator and allowed to equilibrate at rt for 30 minutes. Prolabel substrate (DiscoverX PathHunter Prolabel Detection Kit, User manual: 93-0180) was added as described by the manufacturers protocols. Plates were incubated at rt for three hours and luminescence was read using an Envision reader (Perkin Elmer) Data was analyzed and visualized using the Spotfire software package.

Another assay has as its target IKZF1 (Homo sapiens, UniProt Q13422+Q96SW2). The assay is described as follows: Prolabel quantification of IKZF1 protein levels in 293GT cells. The following applies: Prolabel assay, read-out: IKZF1 EC50. Format: cell-based. The method, then:
as §1, §2, §3, §4, §5, §6, §7

[1] abbreviates: 24 h, 10 μM, 24 h, 293GT cells; read-out: IKZF2 % protein reduction at 10 μM, 24 h.
The mark [2] stands for this setting: Prolabel assay, 293GT cells; read-out: IKZF2 EC50.
[3] abbreviates: 10 μM, 24 h, 293GT cells; read-out: IKZF2 % protein reduction at 10 μM, 24 h.

Sequence of IKZF1 (Q13422 whole entry): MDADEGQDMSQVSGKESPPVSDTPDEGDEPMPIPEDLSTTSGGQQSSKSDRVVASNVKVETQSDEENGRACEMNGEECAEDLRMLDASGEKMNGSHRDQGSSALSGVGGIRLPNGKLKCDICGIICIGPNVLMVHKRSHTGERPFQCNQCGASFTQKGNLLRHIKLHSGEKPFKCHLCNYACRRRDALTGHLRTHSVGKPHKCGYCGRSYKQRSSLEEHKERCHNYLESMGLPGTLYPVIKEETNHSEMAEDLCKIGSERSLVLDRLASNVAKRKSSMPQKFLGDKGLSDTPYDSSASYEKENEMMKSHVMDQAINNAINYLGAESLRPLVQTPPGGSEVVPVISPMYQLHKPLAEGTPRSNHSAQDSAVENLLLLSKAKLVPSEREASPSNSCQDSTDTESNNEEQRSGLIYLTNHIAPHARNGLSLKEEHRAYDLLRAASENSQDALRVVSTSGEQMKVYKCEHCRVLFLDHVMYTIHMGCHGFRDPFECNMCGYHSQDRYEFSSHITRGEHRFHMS
Sequence of IKZF1 (Q96SW2 whole entry): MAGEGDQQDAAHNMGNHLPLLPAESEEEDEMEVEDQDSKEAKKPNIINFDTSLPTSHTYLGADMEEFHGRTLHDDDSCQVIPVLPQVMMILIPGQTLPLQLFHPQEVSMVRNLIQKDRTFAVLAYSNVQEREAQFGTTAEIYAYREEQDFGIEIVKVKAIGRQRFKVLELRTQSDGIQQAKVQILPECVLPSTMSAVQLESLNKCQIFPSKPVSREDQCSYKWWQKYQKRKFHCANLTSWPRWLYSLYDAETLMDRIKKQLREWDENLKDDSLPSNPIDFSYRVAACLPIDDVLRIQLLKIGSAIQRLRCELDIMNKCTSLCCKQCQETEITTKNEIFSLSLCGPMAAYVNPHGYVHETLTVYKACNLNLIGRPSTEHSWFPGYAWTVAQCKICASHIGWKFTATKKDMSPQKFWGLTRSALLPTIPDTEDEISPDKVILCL
Sequence of IKZF1 (Q16531 whole entry partner): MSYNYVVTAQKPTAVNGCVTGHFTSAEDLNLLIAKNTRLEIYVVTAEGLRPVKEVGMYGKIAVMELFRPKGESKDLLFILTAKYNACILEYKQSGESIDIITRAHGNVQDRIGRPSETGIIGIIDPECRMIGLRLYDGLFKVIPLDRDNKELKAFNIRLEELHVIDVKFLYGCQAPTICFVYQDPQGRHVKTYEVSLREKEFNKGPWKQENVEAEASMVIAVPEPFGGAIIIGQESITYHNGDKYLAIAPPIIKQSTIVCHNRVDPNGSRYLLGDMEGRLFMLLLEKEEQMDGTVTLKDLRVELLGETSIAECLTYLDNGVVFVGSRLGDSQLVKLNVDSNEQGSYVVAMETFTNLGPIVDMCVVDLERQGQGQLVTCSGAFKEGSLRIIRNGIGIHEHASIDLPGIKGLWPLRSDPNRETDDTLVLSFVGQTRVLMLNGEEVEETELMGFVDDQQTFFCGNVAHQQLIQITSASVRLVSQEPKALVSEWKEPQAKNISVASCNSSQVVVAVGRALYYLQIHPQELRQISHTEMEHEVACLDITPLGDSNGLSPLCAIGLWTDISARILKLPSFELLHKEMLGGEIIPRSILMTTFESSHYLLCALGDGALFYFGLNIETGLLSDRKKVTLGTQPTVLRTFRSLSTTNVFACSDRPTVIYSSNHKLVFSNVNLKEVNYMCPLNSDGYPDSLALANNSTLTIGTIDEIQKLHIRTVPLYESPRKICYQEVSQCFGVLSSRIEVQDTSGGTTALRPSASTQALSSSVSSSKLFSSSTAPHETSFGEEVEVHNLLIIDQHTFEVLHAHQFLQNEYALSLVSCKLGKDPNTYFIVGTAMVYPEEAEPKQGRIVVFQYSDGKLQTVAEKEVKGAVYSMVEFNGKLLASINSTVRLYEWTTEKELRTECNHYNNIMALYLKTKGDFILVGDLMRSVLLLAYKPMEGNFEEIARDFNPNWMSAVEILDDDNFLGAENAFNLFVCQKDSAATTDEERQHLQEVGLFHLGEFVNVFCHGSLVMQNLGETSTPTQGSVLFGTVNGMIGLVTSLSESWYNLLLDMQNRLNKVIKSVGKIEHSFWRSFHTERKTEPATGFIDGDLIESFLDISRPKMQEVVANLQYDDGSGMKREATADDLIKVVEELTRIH
Sequence of IKZF2 (Q9UKS7 whole entry, the tested form may be a part): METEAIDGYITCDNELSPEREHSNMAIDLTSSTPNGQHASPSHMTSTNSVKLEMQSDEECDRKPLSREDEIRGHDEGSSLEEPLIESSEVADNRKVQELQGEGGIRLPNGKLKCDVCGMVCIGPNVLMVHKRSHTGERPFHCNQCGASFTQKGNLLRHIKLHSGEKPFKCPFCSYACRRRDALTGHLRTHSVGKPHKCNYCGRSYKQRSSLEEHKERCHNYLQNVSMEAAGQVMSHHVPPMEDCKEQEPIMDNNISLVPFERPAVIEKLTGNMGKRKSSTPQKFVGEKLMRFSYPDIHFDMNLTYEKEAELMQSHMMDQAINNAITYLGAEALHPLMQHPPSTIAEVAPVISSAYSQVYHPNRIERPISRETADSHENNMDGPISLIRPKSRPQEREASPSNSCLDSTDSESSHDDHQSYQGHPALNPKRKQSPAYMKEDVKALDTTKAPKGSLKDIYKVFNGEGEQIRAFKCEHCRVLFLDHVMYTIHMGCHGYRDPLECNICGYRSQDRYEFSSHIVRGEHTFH
Sequence of IKZF2 (Q96SW2 whole entry, the tested form may be a part): as the sequence (Q96SW2 whole entry) above
Sequence of IKZF2 (Q16531 whole entry partner, the tested form may be a part): as the sequence (Q16531 whole entry partner) above

In the case of `O=C1CCC(N2Cc3cc(C4CCCN(Cc5ccccc5)CC4)ccc3C2=O)C(=O)N1` (single isomer, unassigned) [Compound I-190, 3-(5-(1-benzylazepan-4-yl)-1-oxoisoindolin-2-yl)piperidine-2,6-dione], the inhibition at 10 µM on IKZF2 (setting [1]) was determined as 30%. The DC50 was 170 nM on IKZF2 (setting [2]) and greater than 30000 nM at IKZF1.

Take `Nc1ccc(CN2CCC(c3ccc4c(c3)CN(C3CCC(=O)NC3=O)C4=O)CC2)cn1` (stereo not shown) [Compound I-123, 3-(5-(1-((6-aminopyridin-3-yl)methyl)piperidin-4-yl)-1-oxoisoindolin-2-yl)piperidine-2,6-dione]: the inhibition at 10 µM at IKZF2 (setting [1]) turned out to be 75%. For the same compound, the DC50 at IKZF2 (setting [2]) is 69 nM; on IKZF1, greater than 30000 nM.

Turning to `O=C1CCC(N2Cc3cc(C4CCN(Cc5cccc(S(=O)(=O)N6CCOCC6)c5)CC4)ccc3C2=O)C(=O)N1` (stereo not shown) [Compound I-236, 3-(5-(1-(3-(morpholinosulfonyl)benzyl)piperidin-4-yl)-1-oxoisoindolin-2-yl)piperidine-2,6-dione], on IKZF2 (setting [1]), the inhibition at 10 µM came out at 80%. Besides, the “IKZF2 protein levels as compared to the control (DMSO)” value on IKZF2 (Prolabel assay in HEK293GT cells, bar graph) is recorded as “decreased”. Further, the figures for the DC50 at IKZF2 (setting [2]) and at IKZF1 were 3 nM and greater than 25000 nM, respectively.

On to `O=C1CCC(N2Cc3cc(C4CCN(Cc5nccc6ccccc56)CC4)ccc3C2=O)C(=O)N1` (stereo not shown) [Compound I-226, 3-(5-(1-(isoquinolin-1-ylmethyl)piperidin-4-yl)-1-oxoisoindolin-2-yl)piperidine-2,6-dione], for which the inhibition at 10 µM on IKZF2 (setting [1]) was determined as 50%. Also, the results for the DC50 at IKZF2 (setting [2]) and at IKZF1 were 10 nM and greater than 25000 nM, respectively.

For the compound `O=C1CCC(N2Cc3cc(C4CCN(Cc5c(F)cccc5F)CC4)ccc3C2=O)C(=O)N1` (stereo not shown) [Compound I-24, 3-(5-(1-(2,6-difluorobenzyl)piperidin-4-yl)-1-oxoisoindolin-2-yl)piperidine-2,6-dione], the inhibition at 10 µM on IKZF2 (setting [1]) worked out at 60%. Besides, the DC50 on IKZF2 (setting [2]) is 39 nM; at IKZF1 it was greater than 30000 nM.

Turning to `CC1(C)CN(Cc2ccccc2)CCC1c1ccc2c(c1)CN(C1CCC(=O)NC1=O)C2=O` (stereo not shown) [Compound I-185, 3-(5-(1-benzyl-3,3-dimethylpiperidin-4-yl)-1-oxoisoindolin-2-yl)piperidine-2,6-dione], the inhibition at 10 µM at IKZF2 (setting [1]) was 20%. In addition, the DC50 on IKZF2 (setting [2]) and at IKZF1 was greater than 30000 nM in each case.

For `N#Cc1cccc(CN2CCC(c3ccc4c(c3)CN(C3CCC(=O)NC3=O)C4=O)CC2)n1` (stereo not shown) [Compound I-217, 6-((4-(2-(2,6-dioxopiperidin-3-yl)-1-oxoisoindolin-5-yl)piperidin-1-yl)methyl)picolinonitrile], the inhibition at 10 µM at IKZF2 (setting [1]) was found to be 40%. In addition, the figures for the DC50 at IKZF2 (setting [2]) and at IKZF1 were 8 nM and greater than 30000 nM, respectively.

Take `O=C1CCC(N2Cc3cc(C4CCN(Cc5cc(-c6ccccn6)n[nH]5)CC4)ccc3C2=O)C(=O)N1` (stereo not shown) [Compound I-201, 3-(1-oxo-5-(1-((3-(pyridin-2-yl)-1H-pyrazol-5-yl)methyl)piperidin-4-yl)isoindolin-2-yl)piperidine-2,6-dione]: at IKZF2 (setting [1]), the inhibition at 10 µM came out at 75%. Besides, the values for the DC50 on IKZF2 (setting [2]) and on IKZF1 were 33 nM and greater than 30000 nM, respectively.

As for `O=C1CCC(N2Cc3cc(C4CCN(Cc5ccc6c(c5)CCCC6)CC4)ccc3C2=O)C(=O)N1` (stereo not shown) [Compound I-175, 3-(1-oxo-5-(1-((5,6,7,8-tetrahydronaphthalen-2-yl)methyl)piperidin-4-yl)isoindolin-2-yl)piperidine-2,6-dione], the inhibition at 10 µM at IKZF2 (setting [1]) was 50%. The DC50 on IKZF2 (setting [2]) was 5 nM; on IKZF1, greater than 50000 nM.

As for `CC(C)CN1CCC(c2ccc3c(c2)CN(C2CCC(=O)NC2=O)C3=O)CC1` (stereo not shown) [Compound I-4, 3-(5-(1-isobutylpiperidin-4-yl)-1-oxoisoindolin-2-yl) piperidine-2,6-dione], the inhibition at 10 µM at IKZF2 (setting [1]) came out at 60%. Also, the DC50 at IKZF2 (setting [2]) was 31 nM; on IKZF1, greater than 30000 nM.

Regarding `N#CCOc1ccc(CN2CCC(c3ccc4c(c3)CN(C3CCC(=O)NC3=O)C4=O)CC2)cc1` (stereo not shown) [Compound I-218, 2-(4-((4-(2-(2,6-dioxopiperidin-3-yl)-1-oxoisoindolin-5-yl)piperidin-1-yl)methyl)phenoxy)acetonitrile], on IKZF2 (setting [1]), the inhibition at 10 µM was determined as 60%. Moreover, the DC50 at IKZF2 (setting [2]) is 4 nM; at IKZF1, greater than 30000 nM.

On to `O=C1CCC(N2Cc3cc(C4CCN(Cc5cnc[nH]5)CC4)ccc3C2=O)C(=O)N1` (stereo not shown) [Compound I-120, 3-(5-(1-((1H-imidazol-5-yl)methyl)piperidin-4-yl)-1-oxoisoindolin-2-yl)piperidine-2,6-dione], for which the inhibition at 10 µM at IKZF2 (setting [1]) was 50%. The figures for the DC50 on IKZF2 (setting [2]) and on IKZF1 were 830 nM and greater than 30000 nM, respectively.

In the case of `O=C1CCC(N2Cc3cc(C4CCN(Cc5ccc6c(c5)NCCS6)CC4)ccc3C2=O)C(=O)N1` (stereo not shown) [Compound I-141, 3-(5-(1-((3,4-dihydro-2H-benzo[b][1,4]thiazin-6-yl)methyl)piperidin-4-yl)-1-oxoisoindolin-2-yl)piperidine-2,6-dione], at IKZF2 (setting [1]), the inhibition at 10 µM came out at 80%. In addition, the DC50 was 9 nM on IKZF2 (setting [2]) and greater than 30000 nM at IKZF1.

Take `N#Cc1ccccc1CN1CCC(c2ccc3c(c2)CN(C2CCC(=O)NC2=O)C3=O)CC1` (stereo not shown) [Compound I-38, 2-((4-(2-(2,6-dioxopiperidin-3-yl)-1-oxoisoindolin-5-yl)piperidin-1-yl)methyl)benzonitrile]: the inhibition at 10 µM on IKZF2 (setting [1]) was 55%. The DC50 on IKZF2 (setting [2]) is 41 nM; at IKZF1 it was greater than 30000 nM.

As for `CC(c1ccccc1)N1CCC(c2ccc3c(c2)CN(C2CCC(=O)NC2=O)C3=O)CC1` (single isomer, unassigned) [Compound I-230], the inhibition at 10 µM on IKZF2 (setting [1]) was found to be 65%. For the same compound, the figures for the DC50 on IKZF2 (setting [2]) and on IKZF1 were 9 nM and greater than 30000 nM, respectively.

On to `O=C1CCC(N2Cc3cc(C4=CCN(Cc5ccccc5)CC4)ccc3C2=O)C(=O)N1` (stereo not shown) [Compound I-172, 3-(5-(1-benzyl-1,2,3,6-tetrahydropyridin-4-yl)-1-oxoisoindolin-2-yl)piperidine-2,6-dione], for which the inhibition at 10 µM on IKZF2 (setting [3]) was found to be 60%. Also, the DC50 at IKZF2 (setting [2]) stood at 103 nM; on IKZF1, 250 nM.

In the case of `Cc1cccc(CN2CCC(c3ccc4c(c3)CN(C3CCC(=O)NC3=O)C4=O)CC2)c1` (stereo not shown) [Compound I-173, 3-(5-(1-(3-methylbenzyl)piperidin-4-yl)-1-oxoisoindolin-2-yl)piperidine-2,6-dione], the inhibition at 10 µM at IKZF2 (setting [3]) is 65%. The DC50 on IKZF2 (setting [2]) was 74 nM; on IKZF1 it was greater than 30000 nM.

As for `O=C1CCC(N2Cc3cc(C4CCN(Cc5ccc6c(c5)OCCO6)CC4)ccc3C2=O)C(=O)N1` (stereo not shown) [Compound I-83, 3-(5-(1-((2,3-dihydrobenzo[b][1,4]dioxin-6-yl)methyl)piperidin-4-yl)-1-oxoisoindolin-2-yl)piperidine-2,6-dione], the inhibition at 10 µM on IKZF2 (setting [1]) was determined as 80%. In addition, the figures for the DC50 at IKZF2 (setting [2]) and at IKZF1 were 52 nM and greater than 30000 nM, respectively.

In the case of `O=C1CCC(N2Cc3cc(C4CCN(CCC(F)(F)F)CC4)ccc3C2=O)C(=O)N1` (stereo not shown) [Compound I-179, 3-(1-oxo-5-(1-(3,3,3-trifluoropropyl)piperidin-4-yl)isoindolin-2-yl)piperidine-2,6-dione], at IKZF2 (setting [1]), the inhibition at 10 µM was 40%. Besides, the DC50 is 67 nM on IKZF2 (setting [2]) and greater than 30000 nM at IKZF1.
